Experimental data as given in patent US20240238287A1, “PHARMACEUTICAL COMPOSITION FOR PREVENTING OR TREATING CANCER” (priority 2021, published 2024).

Assays:
NCIN87 cells = assay: CyQUANT cell proliferation assay, intestinal subtype cell line; assay type: cell-based; conditions: DON 1, 50, 150 μM, CB839 1, 5, 25 μM, BPTES 5, 10, 25 μM, FIGS. 5 to 7
Procedure: (§1) NCIN87, an intestinal subtype cell line, and HS746T, a stem-like subtype cell line, were dispensed in a 96-well plate (black) with 5000 cells each, and replaced with glutamine-deficient culture medium (Gibco) the next day. Then, the cell lines were treated with DON (1 μM, 50 μM, 150 μM; selleckchem, cat no. S8620), CB839 (1 μM, 5 μM, 25 μM; cayman, cat no. S7655) or BPTES (5 μM, 10 μM, 25 μM; MCE, cat no. HY-12683) and the treatment time was 0 hours, and the cell culture medium was discarded at 24, […] and 72 hours, and stored in an ultra-low temperature freezer at −80° C. After culturing the cells stored in this way at room temperature, 200 μl of cell lysate containing GR dye contained in the cell viability assay kit (CyQUANT cell proliferation assay, Invitrogen) was placed in each well of the cultured cells and incubated at room temperature for 5 min. Afterwards, The intensity of fluorescence was measured at a wavelength of 480 nm and 520 nm excitation using a fluorescence photometer (thermo, varioskan flash 3001), and the measured value was standardized to the number of cells at 0 hour, quantified in %, and the value was shown in FIGS. 4 to 7.

HS746T cells [1] = assay: CyQUANT cell proliferation / viability assay, stem-like subtype cell line; assay type: cell-based; conditions: for cell proliferation: HS746T, DON 1, 50, 150 μM, CB839 1, 5, 25 μM, BPTES 5, 10, 25 μM, FIGS. 5 to 7; for survival of HS746T, inhibitor with glutamine deficiency vs each alone: Gln(−), PHGDH inhibitor 25 μM, SHMT inhibitor 1 μM, MTHFD2 inhibitor 0.5 μM, FIGS. 9 to 11
Procedure: as §1
As described in Example 4, after dispensing and incubating the stem-like subtype cell line HS746T, replacing it with a glutamine-deficient culture medium, administering a PHGDH inhibitor (25 μM), SHMT inhibitor (1 μM) or MTHFD2 inhibitor (0.5 μM), and using a cell viability assay kit, the survival rate measured using the cell viability assay kit was shown in FIGS. 9 to 11.

[2] = test system: GA077 stem-like subtype organoid; assay: Organoid diameter by optical microscopy; assay type: cell-based; conditions: CB839 5 μM alone, D1 to D4, FIG. 8
[3] = test system: glutamine-dependent liver cancer cells; conditions: cited from earlier work
SEM-type GC cells [4] = assay: Cell death by GLS/PHGDH inhibitor cotreatment and antioxidant rescue; assay type: cell-based; conditions: addition of antioxidant
HS746T cells [5] = assay: Ratio of reduced (GSH) to oxidized glutathione (GSSG); assay type: cell-based; conditions: HS746T cultured without glutamine plus PHGDH inhibition
HS746T cells [6] = assay: Amount of NADP; assay type: cell-based; conditions: PHGDH-inhibited cells with glutamine deficiency
SEM-type GC cells [7] = assay: Mitochondrial ROS estimated by MitoSOX; assay type: cell-based; conditions: NCT503 treatment and glutamine starvation

Row | Compound | cell proliferation (NCIN87 cells) | cell proliferation (HS746T cells [1]) | survival of HS746T, inhibitor with glutamine deficiency vs each alone (HS746T cells [1]) | other results
1 | O=C(Cc1ccccc1)Nc1nnc(CCSCCc2nnc(NC(=O)Cc3ccccc3)s2)s1 [BPTES] | inhibited | not reduced | – | –
2 | O=C(Cc1cccc(OC(F)(F)F)c1)Nc1ccc(CCCCc2nnc(NC(=O)Cc3ccccn3)s2)nn1 [CB839] | inhibited | not reduced | – | organoid size (diameter) [2]: not reduced in size; antitumor effect of single-drug treatment [3]: very limited antitumor effect
3 | [N-]=[N+]=CC(=O)CC[C@H](N)C(=O)O [DON] | inhibited | not reduced | – | –
4 | Cc1c(N2CCN(C)[C@@H](C)C2)ccc2c3c(c(=O)oc12)CN(C(=O)c1ccc(NS(C)(=O)=O)c(OC(F)(F)F)c1)CC3 [MTHFD2i] | – | – | significant synergistic effect | –
5 | CC(=O)N[C@@H](CS)C(=O)O [NAC, N-acetylcysteine] | – | – | – | rescue of cell death induced by cotreatment with CB839 and NCT503 (SEM-type GC cells [4]): partially rescued
6 | Cc1cc(C)nc(NC(=S)N2CCN(Cc3ccc(C(F)(F)F)cc3)CC2)c1 [NCT503] | – | – | significant synergistic effect | ratio of reduced glutathione (GSH) to oxidized glutathione (GSSG) (HS746T cells [5]): decreased; amount of NADP (HS746T cells [6]): lowest; mitochondrial ROS estimated by MitoSOX (SEM-type GC cells [7]): highest
7 | Cc1n[nH]c2c1C(c1cc(CO)cc(-c3ccccc3)c1)(C(C)C)C(C#N)=C(N)O2 (stereo not drawn) [SHMTi] | – | – | significant synergistic effect | –
